Molecules are shown by their SMILES. pEC50: −log10 of the molar value. Read-outs that look alike come from different tables or passages of the source.

Experiment [1] deals with T1, aromatase (Rattus norvegicus, UniProt P22443).
T1 sequence (P22443 1-508): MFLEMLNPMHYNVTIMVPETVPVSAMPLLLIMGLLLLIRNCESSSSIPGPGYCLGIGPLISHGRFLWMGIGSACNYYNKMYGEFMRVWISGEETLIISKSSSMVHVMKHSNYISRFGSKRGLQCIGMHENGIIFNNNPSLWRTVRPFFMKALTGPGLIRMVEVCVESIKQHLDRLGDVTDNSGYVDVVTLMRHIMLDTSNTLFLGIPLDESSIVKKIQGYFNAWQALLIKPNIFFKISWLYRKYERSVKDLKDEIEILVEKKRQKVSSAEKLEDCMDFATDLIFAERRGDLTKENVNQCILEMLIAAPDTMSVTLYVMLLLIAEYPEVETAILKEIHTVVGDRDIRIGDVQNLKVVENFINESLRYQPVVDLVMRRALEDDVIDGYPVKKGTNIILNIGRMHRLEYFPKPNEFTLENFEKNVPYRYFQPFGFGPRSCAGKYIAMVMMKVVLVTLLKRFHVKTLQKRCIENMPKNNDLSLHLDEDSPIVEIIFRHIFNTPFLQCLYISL
The experiment is described as follows: biochemical.
Experimental: In this test system, ovarian microsomes are obtained from rats treated with pregnant mares serum gonadotropin. Test compounds are added to reaction vials containing 0.1 μM 4-androstene-3,17-dione, 100,000 dpm 1,2[^3 H]-androstenedione, the microsomes and a NADPH generating system. The concentrations of the inhibitors tested ranged between 0.005 and 10 μM.

Experiment [2] has as its system estrogen synthesis (aromatization); uterus. Nature of the experiment: Estrogen Synthesis Inhibition in Rats: uterine weight of testosterone propionate-treated immature rats. Type of experiment: in vivo, immature female Wistar rats. The settings on record: 7 days. On the procedure:
Immature female Wistar rats (45-55 grams) were divided into control and test groups of 2-8 animals each. Test compounds were administered for seven days as a component of the diet. Control animals received diet without the test compound. Beginning on the fourth day of the test, all animals treated with the test compound and one half of the control animals were given a subcutaneous injection of 1.0 mg of testosterone propionate in corn oil. The remaining control animals received only an equivalent volume of corn oil. On the seventh day of the test, rats treated with testosterone propionate were injected subcutaneously with 100 μCi of [^3 H]-testosterone in 50 μl of 3:1 (v/v) saline-ethanol.
After two hours, the animals were killed by decapitation. Uteri were isolated, trimmed of extraneous connective tissue, and weighed. […] In the control animals treated with testosterone propionate, estrogens produced by aromatization stimulated the uterus resulting in an increase in weight.
*ppm in feed. 300 ppm corresponds to approximately 30 mg/kg/day; 200 ppm
corresponds to approximately 20 mg/kg/day; 30 ppm corresponds to
approximately 3 mg/kg/day.

Experiment [3] deals with estrogen synthesis (ovarian estradiol, estrone, estriol). The experiment is described as follows: Estrogen Synthesis Inhibition in Rats: ovarian steroid concentration after [3H]-testosterone. Type of experiment: in vivo, immature female Wistar rats. The settings on record: 7 days. On the procedure: Test compounds were administered for seven days as a component of the diet. Control animals received diet without the test compound. Beginning on the fourth day of the test, all animals treated with the test compound and one half of the control animals were given a subcutaneous injection of 1.0 mg of testosterone propionate in corn oil. The remaining control animals received only an equivalent volume of corn oil.
The ovarian steroids were extracted with 1.5 ml of 9:1 (v/v) toluene/ethanol to which had been added 25 to 100 mcg each of unlabelled estradiol, estriol, and estrone, and approximately 1000 dpm of [^14 C]-estradiol. The samples were vortexed, centrifuged at 500×g for 10 minutes, and the organic phase was transferred to a conical vial. Two additional extractions were performed on the residue in the same way. The pooled organic extracts were evaporated for subsequent thin-layer chromatography.
Ovarian proteins were precipitated by the addition of 5.0 ml of ethanol to the remaining aqueous phase. After an overnight incubation at 4° C., the samples were centrifuged at 1500×g for 10 minutes. The supernatant was discarded and the pellet was dissolved in 0.3N potassium hydroxide.
The organic residue from each above extraction was redissolved in 9:1 (v/v) dichloromethane/methanol. The solution of each sample was applied to separate silica gel thin layer chromatography plates which contained a fluorescent indicator. The plates were developed in the first dimension with 160:38:1.5:0.5 (v/v/v/v) dichloromethane/ethyl acetate/methanol/acetic acid to within 3 cm of the top of the plate. After air-drying, the plate was developed in the second dimension with 180:19:1 (v/v/v) dichloromethane/methanol/ammonium hydroxide.
The spots were scraped from the plate using a glass wool plugged Pasteur pipet attached to a vacuum line. The steroids were eluted directly into scintillation vials by the addition of 0.2 ml of dichloromethane followed by two washes each of 2.0 ml of methanol. The organic solvent was evaporated and 10.0 ml of scintillation fluid (Beckman Ready Solv-NA) was added to the vials. Samples were analyzed by liquid scintillation spectrometry. Corrections were made based on the recoveries of the [^14 C]-steroid. Steroid concentrations are expressed as femtomoles per milligram protein.

Setting [4] is: rat ovarian microsomes, substrate (androstenedione) 0.1 μM.
[5] abbreviates: Test IV, 200 ppm in feed (approx. 20 mg/kg/day), testosterone-treated control 213.5.
Setting [6] is: Test IV, 200 ppm in feed (approx. 20 mg/kg/day), testosterone-treated control 0.14.
[7] abbreviates: Test IV, 200 ppm in feed (approx. 20 mg/kg/day), testosterone-treated control 0.24.
[8] abbreviates: Test IV, 200 ppm in feed (approx. 20 mg/kg/day), testosterone-treated control 1.98.

What is called pEC50 is −log10 of the EC50, conventionally taken in molar units. Low values mean a high EC50, high ones a low EC50. As for `Clc1ccc(CN(Cc2cccnc2)C2=NCCS2)c(Cl)c1` [N--(4,5-dihydro-2-thiazolyl)-N--(2,4-dichlorobenzyl)-3-pyridinemethanamine], the pEC50 in experiment [1] is 6.93.

Take `Brc1ccc(N(Cc2cccnc2)C2=NCCS2)cc1` [N--(4,5-dihydro-2-thiazolyl)-N--(4-bromophenyl)-3-pyridinemethanamine]: in experiment [1], the pEC50 is 6.96. This pEC50 and that of the molecule before are within 0.2 log units of each other.

For `CC(c1ccc(F)cc1)N(C1=NCCS1)C(C)c1cccnc1` (stereo not drawn) [N--(4,5-dihydro-2-thiazolyl)-N--[1-(4-fluorophenyl)ethyl]-α-methyl-3-pyridinemethanamine], the pEC50 in experiment [1] is 5.48. Compared with the last molecule, the pEC50 is 1.48 log units lower.

For the molecule `Clc1ccc(CCN(Cc2cccnc2)C2=NCCS2)cc1` [N--(4,5-dihydro-2-thiazolyl)-N--[2-(4-chlorophenyl)ethyl]-3-pyridinemethanamine], in experiment [1] (setting [4]), the pEC50 was 6.05.

`CSc1ccc(N(Cc2cccnc2)C2=NCCS2)cc1` [N--(4,5-dihydro-2-thiazolyl)-N--[4-(methylthio)phenyl]-3-pyridinemethanamine] had a negative logarithm of the EC50 (pEC50) in experiment [1] (setting [4]) of 5.49. Against the preceding molecule, the pEC50 is 0.56 log units lower.

In experiment [1], `c1ccc(N(Cc2cccnc2)C2=NCCS2)cc1` [N--(4,5-dihydro-2-thiazolyl)-N--phenyl-3-pyridinemethanamine] gave a pEC50 of 6.34.

In the case of `Cc1cc(Cl)ccc1N(Cc1cccnc1)C1=NCCS1` [N--(4-chloro-2-methylphenyl)-N--(4,5-dihydro-2-thiazolyl)-3-pyridinemethanamine], the negative logarithm of the EC50 (pEC50) in experiment [1] (setting [4]) was 6.36.

As for `Clc1ccc(N(Cc2cccnc2)C2=NCCCS2)cc1` [N--(4-chlorophenyl)-5,6-dihydro-N--(3-pyridylmethyl)-4H--1,3-thiazin-2-amine], the negative-log EC50 (pEC50) in experiment [1] was 7.14. The “Mean Uterine Weight” value in experiment [2] (setting [5]) turned out to be 193.0 mg. The “Mean Steroid Concentration, estriol” value in experiment [3] (setting [6]) is reported as 0.04 femtomoles per milligram of protein. Besides, the “Mean Steroid Concentration, estrone” value in experiment [3] (setting [7]) is 0.11 femtomoles per milligram of protein. Besides, the “Mean Steroid Concentration, estradiol” value in experiment [3] (setting [8]) is listed as 1.54 femtomoles per milligram of protein.

In experiment [1], `Clc1ccc(N(Cc2cccnc2)C2=NCCO2)cc1` [N--(4-chlorophenyl)-N--(4,5-dihydro-2-oxazolyl)-3-pyridinemethanamine] showed a pEC50 of 7.10.

Take `Clc1ccc(N(Cc2cnccn2)C2=NCCS2)cc1` [N--(4-chlorophenyl)-N--(4,5-dihydro-2-thiazolyl)-2-pyrazinemethanamine]: the pEC50 in experiment [1] was 5.50.

Take `Clc1ccc(N(Cc2cncnc2)C2=NCCS2)cc1` [N--(4-chlorophenyl)-N--(4,5-dihydro-2-thiazolyl)-5-pyrimidinemethanamine]: in experiment [1], the pEC50 is 6.21.

In experiment [1] (setting [4]), `CC(c1cccnc1)N(C1=NCCS1)c1ccc(Cl)cc1` (stereo not drawn) [N--(4-chlorophenyl)-N--(4,5-dihydro-2-thiazolyl)-α-methyl-3-pyridinemethanamine] gave a pEC50 of 5.63.

Regarding `CC1CSC(N(Cc2cccnc2)c2ccc(Cl)cc2)=N1` (stereo not drawn) [N--(4-chlorophenyl)-N--(4,5-dihydro-4-methyl-2-thiazolyl)-3-pyridinemethanamine], the “Mean Uterine Weight” value is on record as 225.5 mg in experiment [2] (Test III, 30 ppm in feed (approx. 3 mg/kg/day), testosterone-treated control 220.0) and 187.6 mg in experiment [2] (Test III, 300 ppm in feed (approx. 30 mg/kg/day), testosterone-treated control 220.0). In addition, the “Mean Steroid Concentration, estrone” value in experiment [3] (Test III, 30 ppm in feed (approx. 3 mg/kg/day), testosterone-treated control 1.02) is given as 1.14 femtomoles per milligram of protein; in experiment [3] (Test III, 300 ppm in feed (approx. 30 mg/kg/day), testosterone-treated control 1.02), 0.62 femtomoles per milligram of protein. The “Mean Steroid Concentration, estradiol” value is given as 2.40 femtomoles per milligram of protein in experiment [3] (Test III, 30 ppm in feed (approx. 3 mg/kg/day), testosterone-treated control 1.31) and 0.95 femtomoles per milligram of protein in experiment [3] (Test III, 300 ppm in feed (approx. 30 mg/kg/day), testosterone-treated control 1.31). Further, the “Mean Steroid Concentration, estriol” value is given as 1.56 femtomoles per milligram of protein in experiment [3] (Test III, 30 ppm in feed (approx. 3 mg/kg/day), testosterone-treated control 1.32) and 0.37 femtomoles per milligram of protein in experiment [3] (Test III, 300 ppm in feed (approx. 30 mg/kg/day), testosterone-treated control 1.32).

Turning to `CC1CSC(N(c2ccc(Cl)cc2)C(C)c2cccnc2)=N1` (stereo not drawn) [N--(4-chlorophenyl)-N--(4,5-dihydro-4-methyl-2-thiazolyl)-α-methyl-3-pyridinemethanamine], in experiment [1] (setting [4]), the negative logarithm of the EC50 (pEC50) is 5.71.

The molecule `CC(c1ccc(Cl)cc1)N(Cc1cccnc1)C1=NCCS1` (stereo not drawn) [N--[1-(4-chlorophenyl)ethyl]-N--(4,5-dihydro-2-thiazolyl)-3-pyridinemethanamine] had a negative logarithm of the EC50 (pEC50) in experiment [1] of 7.32. The “Mean Uterine Weight” value in experiment [2] (setting [5]) was found to be 185.8 mg. The “Mean Steroid Concentration, estriol” value in experiment [3] (setting [6]) is given as 0.04 femtomoles per milligram of protein. Moreover, the “Mean Steroid Concentration, estrone” value in experiment [3] (setting [7]) is 0.13 femtomoles per milligram of protein. Further, the “Mean Steroid Concentration, estradiol” value in experiment [3] (setting [8]) is listed as 1.01 femtomoles per milligram of protein.

Source of the values: patent US4767770A, “Method of inhibiting aromatase” (Eli Lilly and Company, priority 1984, dated 1988).
